Data on 2 molecules can be found in US12667565B2, “Use of composition for enhancing anticancer effect, comprising ERRy inhibitor as active ingredient” (NOVMETAPHARMA CO., LTD., priority 2019, dated 2026).

SMILES strings stand for the structures.

Data set [1] relates to Huh7-SR cell line. Nature of the data set: ROS generation measured by FACS with H2-DCF-DA. The conditions noted are these: DN200434 12 μM and sorafenib 10 μM, 24 hours, FIG. 3A. Format: cell-based. The method, then: (§1) The present inventors have performed experiments using sorafenib-resistant liver cancer cell lines (Huh7-SR and SK-Hep-R cell lines) and a liver cancer cell line-derived animal model (xenograft). To determine an effect of the synthetic compound DN200434, which is an inverse agonist against ERRγ, on the proliferation of liver cancer cells and ROS generation, ROS was measured using a cell count and 2′,7-dichlorofluorescin diacetate (DCF-DA). […]
(§2) In order to investigate an effect of the compound (DN200434) represented by Formula 1, which is an inverse agonist against ERRγ, on ROS generation in sorafenib-resistant liver cancer cells, the effect was measured by FACS using 2′,7′-dichlorohydrofluorescein diacetate (H2-DCF-DA; Invitrogen, USA) as an ROS probe. […] Then, the cells were incubated for 30 minutes, and washed with PBS, and data was collected using a BD Accuri™ C6 flow cytometer (BD Bioscience, USA), and analyzed using an Accuri™ C6 analysis program (BD Bioscience, USA). To determine the number of cells, the sorafenib-resistant liver cancer cell line was treated with the DN200434 compound (12 μM) in combination with sorafenib (10 μM), and stained with trypan blue, and the number of cells was then measured using a hemocytometer.

Data set [2] concerns SK-Hep-R cell line. Nature of the data set: ROS generation measured by FACS with H2-DCF-DA. In kind it is cell-based. As to conditions: DN200434 12 μM and sorafenib 10 μM, 24 hours, FIG. 3B. The protocol:
as §1, §2
For orientation: In flow cytometry, cells or beads pass a laser one at a time.

Data set [3] has as its system sorafenib-resistant liver cancer cell line Huh7-R. Nature of the data set: Sorafenib-resistant liver cancer animal model (xenograft). Format: in vivo, mice. The method, then: (§3) The present inventors have performed experiments using sorafenib-resistant liver cancer cell lines (Huh7-SR and SK-Hep-R cell lines) and a liver cancer cell line-derived animal model (xenograft). To determine an effect of the synthetic compound DN200434, which is an inverse agonist against ERRγ, on the proliferation of liver cancer cells and ROS generation, ROS was measured using a cell count and 2′,7-dichlorofluorescin diacetate (DCF-DA). Finally, after a sorafenib-resistant liver cancer cell line was injected into […] to induce the formation of sorafenib-resistant liver cancer, changes in size of liver cancer were confirmed in the group injected with the inverse agonist against ERRγ (DN200434) and sorafenib and the group injected with the control drug.
(§4) The sorafenib-resistant liver cancer cell line Huh7-R was injected into mice in order to construct a sorafenib-resistant liver cancer animal model (xenograft). Thereafter, the inverse agonist against ERRγ (e.g., DN200434 (Formula 1)) was administered in combination with sorafenib, and the size change of the formed mass was measured. In this case, the group in which the sorafenib-resistant liver cancer-derived animal model was treated with sorafenib alone was used as the comparative control.

Data set [4] relates to Huh7-R sorafenib-resistant liver cancer cell line. Nature of the data set: Cell proliferation (trypan blue cell count, hemocytometer). Format: cell-based. The conditions noted are these: FIG. 4A. The method, then: as §3
(§5) In order to investigate an effect of the compound (DN200434) represented by Formula 1, which is an inverse agonist against ERRγ, on ROS generation in sorafenib-resistant liver cancer cells, the effect was measured by FACS using 2′,7′-dichlorohydrofluorescein diacetate (H2-DCF-DA; Invitrogen, USA) as an ROS probe. Drug-resistant cells were treated with sorafenib (10 μM) and the DN200434 compound (12 μM) for 24 hours, and 10 μM H2-DCF-DA was added to the cells. Then, the cells were incubated for 30 minutes, and washed with PBS, and data was collected using a BD Accuri™ C6 flow cytometer (BD Bioscience, USA), and analyzed using an Accuri™ C6 analysis program (BD Bioscience, USA). To determine the number of cells, the sorafenib-resistant liver cancer cell line was treated with the DN200434 compound (12 μM) in combination with sorafenib (10 μM), and stained with trypan blue, and the number of cells was then measured using a hemocytometer.

Data set [5] concerns SK-Hep-R sorafenib-resistant liver cancer cell line. The description is as above. In kind it is cell-based. The conditions noted are these: FIG. 4B. The method, then: as §3, §5
Data set [6] relates to sorafenib-resistant liver cancer cell line SK-Hep-R. Nature of the data set: Sorafenib-resistant liver cancer animal model (xenograft). Format: in vivo, mice. The method, then: as §3, §4
An animal model derived from the sorafenib-resistant liver cancer cell line SK-Hep-R was constructed in the same manner as described above, and the effect of co-administration of the DN200434 compound represented by Formula 1, which is an inverse agonist against ERRγ, and sorafenib was confirmed.

For data set [7], the system named is Huh7-SR cell line. Nature of the data set: Cell death by sorafenib (annexin/PI FACS, cleaved caspase-3). Format: cell-based. The conditions noted are these: Huh7-SR cells; FIGS. 1A to 1C. The protocol:
(§6) Hepatocarcinoma cell lines [Huh7 cells (Korea Cell Line Bank (KCLB) No. 60104), SK-Hep cells (ATCC® HTB-52™)] were continuously exposed to sorafenib (gradually increasing to 10 μM) to construct sorafenib-resistant liver cancer cell lines (Huh7-SR and SK-Hep-R cell lines). To evaluate the cancer cell death by FACS, first, a cancer cell line was incubated in FITC-bound annexin and propidium iodide (PI) for 15 minutes, and annexin and PI binding were then measured by flow cytometry to acquire data using a BD Accuri C6 flow cytometer (BD Biosciences) and analyzed with the Accuri C6 analysis program (BD Biosciences)/FlowJo software (FlowJo, LLC.). Cancer cell line death was evaluated using a cleaved caspase-3 antibody (Cell Signaling Technology).

For data set [8], the system named is SK-Hep-R cell line. Described as above. Format: cell-based. The conditions noted are these: SK-Hep-R cells; FIGS. 1A to 1C. The method, then:
as §6

Where [9] appears, read: DN200434 12 μM in combination with sorafenib 10 μM.

Consider `CC(C)N1CCN(c2ccc(/C(=C(/CCCO)c3ccccc3)c3ccc(O)cc3)cc2)CC1` [DN200434], for which the ROS result in the data set with Huh7-SR cell line [1] and in the data set with SK-Hep-R cell line [2] was “increase” throughout. Also, the body weight change result in data set [3] (in combination with sorafenib vs sorafenib-alone control, FIG. 5D) is listed as “no difference”; in data set [6] (in combination with sorafenib vs sorafenib-alone control, FIG. 6D), “no difference”. In addition, the tumor size entry was “significantly decreased” in data set [3] (in combination with sorafenib, compared to sorafenib-alone control, FIG. 5A) and “remarkably decreased” in data set [6] (in combination with sorafenib, compared to sorafenib-alone control, FIG. 6A). Moreover, the tumor weight result in data set [3] (in combination with sorafenib, compared to sorafenib-alone control, FIG. 5B) is reported as “significantly decreased”; in data set [6] (in combination with sorafenib, compared to sorafenib-alone control, FIG. 6B) it was “remarkably decreased”. In addition, the tumor volume result in data set [3] (in combination with sorafenib, compared to sorafenib-alone control, FIG. 5C) is recorded as “significantly decreased”; in data set [6] (in combination with sorafenib, compared to sorafenib-alone control, FIG. 6C), “remarkably decreased”. Besides, the cell proliferation result in data set [4] (setting [9]) and in data set [5] (setting [9]) was “significantly decreased” each time.
As for `CNC(=O)c1cc(Oc2ccc(NC(=O)Nc3ccc(Cl)c(C(F)(F)F)c3)cc2)ccn1` [sorafenib, reference compound], the “cell death by sorafenib” value in the data set on Huh7-SR cell line [7] and with SK-Hep-R cell line [8] was “did not increase” each time. Also, the cell proliferation result in data set [4] (sorafenib alone) and in data set [5] (sorafenib alone) was “not affected” each time.
